Measurements as given in patent publication US6617439B1, “C8-substituted purine nucleotide analogs” (Bar-Ilan University, priority 2000, dated 2003).
Entries after “also recorded” stand apart in the source; their conditions may differ.

Experiments:
NTPDase [1] = target: T1, NTPDase (Bos taurus, UniProt O18956); assay: NTPDase inhibition, ATP as substrate (Dixon plots); assay type: biochemical, bovine
T1 sequence (O18956 1-513): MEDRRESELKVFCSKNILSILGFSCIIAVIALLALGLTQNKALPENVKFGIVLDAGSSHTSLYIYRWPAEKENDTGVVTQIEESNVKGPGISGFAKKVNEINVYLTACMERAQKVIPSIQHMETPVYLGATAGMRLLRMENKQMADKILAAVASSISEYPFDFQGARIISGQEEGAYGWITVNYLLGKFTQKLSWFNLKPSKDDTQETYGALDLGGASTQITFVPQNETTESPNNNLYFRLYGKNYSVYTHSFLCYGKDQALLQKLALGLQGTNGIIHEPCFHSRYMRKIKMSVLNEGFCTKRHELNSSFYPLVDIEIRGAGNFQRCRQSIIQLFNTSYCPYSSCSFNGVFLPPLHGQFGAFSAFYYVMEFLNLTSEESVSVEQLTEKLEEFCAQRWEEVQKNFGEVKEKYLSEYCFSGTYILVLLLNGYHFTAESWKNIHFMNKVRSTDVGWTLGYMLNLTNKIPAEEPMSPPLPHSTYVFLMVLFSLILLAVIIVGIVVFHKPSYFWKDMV
Description: Isolation of particulate fractions. […] Briefly, bovine spleens were cut in small pieces and homogenized (15-20%) with a Polytron in Tris-saline buffer supplemented with SBTI and PMSF as protease inhibitors. After filtration with cheesecloth and centrifugation at 600 g the supernatant is centrifuged at 22,000 g for 90 min, and the resulting pellet is suspended in bicarbonate buffer and loaded on a sucrose cushion (40%) and centrifuged for two hours at 100,000 g. The fraction floating on the cushion is harvested in five volumes of bicarbonate buffer. […] NTPDase assays. Enzyme activity was routinely measured by the release of inorganic phosphorus with the malachite green colorimetric assay (61). Resistance to hydrolysis was measured at 37° C. in 1 ml of the following incubation medium: 8 mM CaCl2, 5 mM tetramisole, 50 mM Tris base, 50 mM imidazole, buffered at pH 7.6, and 100 μM of either ATP or its analogs. […] In both cases the reaction was started by the addition of 1.9 μg of the enzyme preparation and stopped after 7 min with 250 μL of the malachite green reagent. […] Reactions were performed in the same incubation buffer, as previously described and were started by the addition of non-saturating ATP concentrations. Protein concentration was determined with the Bradford microplate assay using bovine serum albumin as a standard of reference (62). […]

NTPDase [2] = target: T1, NTPDase; assay: Resistance to hydrolysis by NTPDase (malachite green phosphate release); assay type: biochemical, bovine; set-up: To reduce potential artifacts resulting from the solubilisation of NTPDase by detergents, a particulate fraction (prepared as described above) was used; from tissue; host or cells: bovine spleen particulate fraction; settings: 100 μM analog, 37° C., 7 min, 1.9 μg protein
Description: Isolation of particulate fractions. Experiments were carried out with a particulate fraction obtained from bovine spleen according to the method of Sévigny et al. (37). Briefly, bovine spleens were cut in small pieces and homogenized (15-20%) with a Polytron in Tris-saline buffer supplemented with SBTI and PMSF as protease inhibitors. After filtration with cheesecloth and centrifugation at 600 g the supernatant is centrifuged at 22,000 g for 90 min, and the resulting pellet is suspended in bicarbonate buffer and loaded on a sucrose cushion (40%) and centrifuged for two hours at 100,000 g. The fraction floating on the cushion is harvested in five volumes of bicarbonate buffer. The pellet is suspended in Tris buffer/glycerol 7.5% and kept at −20° C.
NTPDase assays. Enzyme activity was routinely measured by the release of inorganic phosphorus with the malachite green colorimetric assay (61). Resistance to hydrolysis was measured at 37° C. in 1 ml of the following incubation medium: 8 mM CaCl2, 5 mM tetramisole, 50 mM Tris base, 50 mM imidazole, buffered at pH 7.6, and 100 μM of either ATP or its analogs. […] In both cases the reaction was started by the addition of 1.9 μg of the enzyme preparation and stopped after 7 min with 250 μL of the malachite green reagent. […] Reactions were performed in the same incubation buffer, as previously described and were started by the addition of non-saturating ATP concentrations. Protein concentration was determined with the Bradford microplate assay using bovine serum albumin as a standard of reference (62).
To reduce potential artifacts resulting from the solubilisation of NTPDase by detergents, a particulate fraction (prepared as described above) was used. […] Also, possible alkaline phosphatase activity was inhibited by tetramisole added to the assays.

rat astrocytes = settings: cited from earlier work
P2X-purinoceptor = assay: P2X-receptor assay, endothelium-denuded mesenteric bed; set-up: species or system guinea pig; settings: for P2X-R effect: variation of perfusion pressure: bolus 0.1-1000 pmol, denuded mesenteric bed precontracted with noradrenaline
Description: (§1) Surgical Procedures. Dunkin-Hartley guinea pigs (300-350 g) of either sex were sacrificed by cerival dislocation according to the Canadian Council on Aminal Care. The guinea pig mesentery was prepared as described by Berthiaume et al (63). […] To isolate the mesenteric bed from the intestine, the mesentery was perfused (2 ml/min, for 5 min) via the mesenteric artery with a Krebs solution containing heparin (100 U/ml). The mesentery was then separated by cutting close to the intestine. A resting period of 60 min was then allowed during which the guinea pig mesenteric bed was perfused (2 ml/min) with a warmed (37° C.) and gassed Krebs solution (95% O2 and 5% CO2) containing indomethacin (5 μM), as described earlier. In all the assays, perfusion pressure was increased to obtain a flow rate of 6 ml min^−1. Response of mesenteric bed, precontracted with noradrenaline (200 μM) in 0.9% saline solution, to the different drugs, was measured with a pressure transducer (Statham, model P-23AC) and recorded on a Grass physiograph (model 79D).
P2X-receptor assays. Guinea pig mesenteric bed was denuded from its endothelium layer by using 20 mM of CHAPS in PBS (63). Briefly, the CHAPS solution was infused for 45 sec, followed by a resting period of 30 min. Finally a second 45 sec infusion of 20 mM CHAPS was carried out. Blood vessels were then precontracted as earlier described. The efficiency of the endothelium removal technique was assessed by an intra-arterial bolus injection of 100 pmol of NK-1 in PBS. Reactivity of the media layer was confirmed by bolus injection of 3 nmol of NaNP (sodium nitroprussiate) in PBS. […] Variation of perfusion pressure were measured. Between each injection of 8-BuS-ATP a resting period was allowed to allow the return of pressure to baseline (i.e. precontracted pressure).

P2Y-purinoceptor = assay: P2Y-receptor assay, intact mesenteric bed, ATP-induced vasodilation; set-up: species or system guinea pig; settings: 7 μM infusion, ATP 0.1-10000 pmol
Description: as §1
P2Y-receptor assays. Intact mesenteric bed vessels were precontracted with noradrenaline (200 μM). […] A resting period between each ATP injection was allowed to return to baseline, as described above. Blood vessel reactivity was assessed by a bolus injection of 3 nmol of NaNP. Response of the endothelium layer was confirmed by injection of NK-1 (100 pmol).

P2Y1 receptor = settings: cited from earlier work

Compound: Nc1ncnc2c1nc(SC1CCCCCC1)n2C1OC(COP(=O)(O)OP(=O)(O)OP(=O)(O)O)C(O)C1O (centres unmarked) [6a, 8-(Thiocycloheptyl)-adenosine 5′-triphosphate]
- potency / affinity as NTPDase inhibitor, in words (NTPDase [1]): good inhibitors
- type of NTPDase inhibition (NTPDase [1]; Lineweaver-Burk / Dixon representation): mixed type inhibitors; also recorded: mixed types of inhibition
- hydrolysis by NTPDase / resistance to hydrolysis (NTPDase [2]): more resistant to hydrolysis; also recorded: resistant to hydrolysis

Compound: CCSc1nc2c(N)ncnc2n1[C@@H]1O[C@H](COP(=O)(O)OP(=O)(O)OP(=O)(O)O)[C@@H](O)[C@H]1O [6c, 8-(Thioethyl)-adenosine 5′-triphosphate]
- hydrolysis by NTPDase / resistance to hydrolysis (NTPDase [2]): a level of hydrolysis

Compound: CCCCSc1nc2c(N)ncnc2n1C1OC(COP(=O)(O)OP(=O)(O)OP(=O)(O)O)C(O)C1O (centres unmarked) [6e, 8-BuS-ATP]
- effect on [Ca2+]i level (rat astrocytes): no effect
- P2X-R effect: variation of perfusion pressure (P2X-purinoceptor): does not interact
- P2X-R effect: variation of perfusion pressure (P2X-purinoceptor; listed as 8-BuS-ATP): not able to initiate any P2X-R effect; also recorded: No variations of perfusion pressure
- effect on vasodilatory response to ATP (P2Y-R) (P2Y-purinoceptor): does not interact
- effect on vasodilatory response to ATP (P2Y-R) (P2Y-purinoceptor; listed as 8-BuS-ATP): unmodified; also recorded: No significant difference
- agonism at P2Y1 receptor (P2Y1 receptor): poor agonist

Compound: Nc1ncnc2c1nc(Br)n2[C@@H]1O[C@H](COP(=O)(O)OP(=O)(O)OP(=O)(O)O)[C@@H](O)[C@H]1O [8-Br-ATP, reference compound]
- hydrolysis by NTPDase / resistance to hydrolysis (NTPDase [2]): a level of hydrolysis

Compound: CCCCNc1nc2c(N)ncnc2n1[C@@H]1O[C@H](COP(=O)(O)OP(=O)(O)OP(=O)(O)O)[C@@H](O)[C@H]1O [compound 7, 8-BuNH-ATP]
- hydrolysis by NTPDase / resistance to hydrolysis (NTPDase [2]): a level of hydrolysis

Compound: CCCCOc1nc2c(N)ncnc2n1[C@@H]1O[C@H](COP(=O)(O)OP(=O)(O)OP(=O)(O)O)[C@@H](O)[C@H]1O [compound 8, 8-BuO-ATP]
- hydrolysis by NTPDase / resistance to hydrolysis (NTPDase [2]): a level of hydrolysis

Compound: [Star^9,Met(O2)^11]SP [NK-1, reference compound]
- vascular response (vasodilation) in denuded mesentery (P2X-purinoceptor; 100 pmol, vessels precontracted with 200 μM noradrenaline): significant response
